# Test results as given in patent US10611730B2, “Benzimidazolone and benzothiazolone compounds and their use as AMPA receptor modulators” (Janssen Pharmaceutica NV, priority 2015, dated 2020).
# Molecular target: TARP γ8 dependent AMPA receptor (GluA1o-g8 fusion channel) (Homo sapiens (Human), UniProt P42261+Q8WXS5)
# Experiment: Calcium flux assay (FLIPR), HEK293 cells expressing GRIA1o-CACNG8 fusion
# Format: cell-based
# Conditions: inhibition of calcium flux after 15 μM glutamate
# Text: This assay was used to test compounds for their ability to inhibit TARP γ8 dependent AMPA receptor activity.
# An in vitro assay was used to determine the potency of test compounds as inhibitors of the glutamate response of the channel formed by GluA1o-g8. To ensure a 1:1 stoichiometry of GluA1o and g8 subunits in the expressed channel, a fusion of the cDNAs for GRIA1o and CACNG8 was used. […] A clonal cell line in HEK293 cells stably expressing this construct, with a geneticin selection marker, was generated for use in this assay. Cell expressing the GRIAlo-CACNG8 fusion construct were grown in a monolayer in 96- or 384-well microtiter plates. […] The cells were then loaded with a calcium-sensitive dye (Calcium-5 or Calcium-6, Molecular Devices) and the test compounds at a range of concentrations.
# The fluorescence in each well was normalized to the fluorescence of negative and positive control wells. […] The responses to glutamate as functions of the test compound concentrations were fitted to a four-parameter logistic function. The fitted parameter corresponding to the midpoint was taken to be the potency of inhibition of the compound.
# TARP γ8 dependent AMPA receptor (GluA1o-g8 fusion channel), sequence (P42261 other isoform, or with tags, fused parts or gaps): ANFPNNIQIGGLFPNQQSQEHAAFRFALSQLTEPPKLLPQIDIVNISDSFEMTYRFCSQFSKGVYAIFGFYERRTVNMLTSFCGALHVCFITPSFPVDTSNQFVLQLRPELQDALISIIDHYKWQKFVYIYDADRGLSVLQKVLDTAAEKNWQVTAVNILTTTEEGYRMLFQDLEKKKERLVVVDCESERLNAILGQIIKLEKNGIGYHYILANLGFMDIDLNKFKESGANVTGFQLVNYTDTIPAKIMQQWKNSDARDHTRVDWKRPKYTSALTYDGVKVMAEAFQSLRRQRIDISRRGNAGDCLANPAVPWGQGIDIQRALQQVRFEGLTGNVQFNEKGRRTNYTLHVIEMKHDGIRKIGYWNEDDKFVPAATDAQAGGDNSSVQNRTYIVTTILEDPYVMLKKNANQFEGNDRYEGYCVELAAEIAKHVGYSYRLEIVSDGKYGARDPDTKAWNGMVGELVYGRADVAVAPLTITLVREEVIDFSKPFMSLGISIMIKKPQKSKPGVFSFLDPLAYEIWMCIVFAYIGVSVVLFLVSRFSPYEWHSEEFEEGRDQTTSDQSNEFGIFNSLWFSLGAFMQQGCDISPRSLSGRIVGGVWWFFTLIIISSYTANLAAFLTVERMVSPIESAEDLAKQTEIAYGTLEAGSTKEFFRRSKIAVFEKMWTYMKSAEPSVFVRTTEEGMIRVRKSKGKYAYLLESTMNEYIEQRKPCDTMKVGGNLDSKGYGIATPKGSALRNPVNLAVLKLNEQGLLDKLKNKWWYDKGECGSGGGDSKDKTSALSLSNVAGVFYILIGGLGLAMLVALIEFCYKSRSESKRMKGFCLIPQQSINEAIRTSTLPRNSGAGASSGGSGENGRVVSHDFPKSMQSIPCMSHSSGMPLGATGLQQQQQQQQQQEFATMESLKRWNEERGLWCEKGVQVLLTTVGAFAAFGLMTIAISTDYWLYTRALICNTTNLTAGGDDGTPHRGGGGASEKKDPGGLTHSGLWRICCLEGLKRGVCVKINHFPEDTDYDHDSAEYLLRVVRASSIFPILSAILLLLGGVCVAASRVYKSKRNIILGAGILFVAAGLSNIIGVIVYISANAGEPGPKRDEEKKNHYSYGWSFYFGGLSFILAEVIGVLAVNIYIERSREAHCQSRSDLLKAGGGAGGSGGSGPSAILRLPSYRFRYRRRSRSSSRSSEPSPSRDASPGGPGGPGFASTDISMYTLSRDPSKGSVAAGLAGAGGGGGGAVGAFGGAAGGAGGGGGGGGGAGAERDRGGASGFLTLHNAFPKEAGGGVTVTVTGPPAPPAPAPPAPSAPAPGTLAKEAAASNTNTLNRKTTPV
row,Compound,GluR1-γ8 pIC50
1,"O=c1[nH]c2ccc(-c3c(Cl)cccc3OC(F)(F)F)cc2s1 [Example 76, 6-[2-Chloro-6-(trifluoromethoxy)phenyl]-3H-1,3-benzothiazol-2-one]",8.6

# Same assay, conditions: inhibition of calcium flux after 15 μM glutamate, read-out: GluR1-γ8 pIC50 (converted)
row,IC50,Compound
1,794 nM,"Cc1cc(Cl)cc(C)c1-c1ccc2[nH]c(=O)[nH]c2c1 [Example 37, 5-(4-Chloro-2,6-dimethyl-phenyl)-1,3-dihydrobenzimidazol-2-one]"
2,501 nM,"Cc1cccc(C#N)c1-c1ccc2[nH]c(=O)[nH]c2c1 [Example 38, 3-Methyl-2-(2-oxo-1,3-dihydrobenzimidazol-5-yl)benzonitrile]"
3,501 nM,"N#CCc1ccccc1-c1ccc2[nH]c(=O)[nH]c2c1 [Example 41, 2-[2-(2-Oxo-1,3-dihydrobenzimidazol-5-yl)phenyl]acetonitrile]"
4,501 nM,"COC(=O)c1cccc(Cl)c1-c1ccc2[nH]c(=O)[nH]c2c1 [Example 42, Methyl 3-chloro-2-(2-oxo-1,3-dihydrobenzimidazol-5-yl)benzoate]"
5,31.6 nM,"COC(=O)c1cccc(-c2ccc3[nH]c(=O)[nH]c3c2)c1Cl [Example 43, Methyl 2-chloro-3-(2-oxo-1,3-dihydrobenzimidazol-5-yl)benzoate]"
6,251 nM,"COC(=O)c1cccc(C)c1-c1ccc2[nH]c(=O)[nH]c2c1 [Example 45, Methyl 3-methyl-2-(2-oxo-1,3-dihydrobenzimidazol-5-yl)benzoate]"
7,50.1 nM,"COC(=O)c1cccc(-c2ccc3[nH]c(=O)[nH]c3c2)c1C [Example 46, Methyl 2-methyl-3-(2-oxo-1,3-dihydrobenzimidazol-5-yl)benzoate]"
8,158 nM,"O=c1[nH]c2ccc(-c3c(Cl)cc(F)cc3Cl)cc2[nH]1 [Example 50, 5-(2,6-Dichloro-4-fluoro-phenyl)-1,3-dihydrobenzimidazol-2-one]"
9,501 nM,"O=c1[nH]c2ccc(-c3c(Cl)cc(Cl)cc3Cl)cc2[nH]1 [Example 51, 5-(2,4,6-Trichlorophenyl)-1,3-dihydrobenzimidazol-2-one]"
10,251 nM,"Cc1cccc(F)c1-c1ccc2[nH]c(=O)[nH]c2c1 [Example 54, 5-(2-Fluoro-6-methyl-phenyl)-1,3-dihydrobenzimidazol-2-one]"
11,3160 nM,"O=c1[nH]c2ccc(-c3cccc4cccnc34)cc2[nH]1 [Example 58, 5-(8-Quinolyl)-1,3-dihydrobenzimidazol-2-one]"
12,316 nM,"O=c1[nH]c2ccc(-c3ccccc3Cc3ccccc3)cc2[nH]1 [Example 59, 5-(2-Benzylphenyl)-1,3-dihydrobenzimidazol-2-one]"
13,79.4 nM,"Cc1c(-c2ccc3[nH]c(=O)[nH]c3c2)cccc1C(F)(F)F [Example 60, 5-[2-Methyl-3-(trifluoromethyl)phenyl]-1,3-dihydrobenzimidazol-2-one]"
14,39.8 nM,"O=c1[nH]c2ccc(-c3cccc(C(F)(F)F)c3Cl)cc2[nH]1 [Example 61, 5-[2-Chloro-3-(trifluoromethyl)phenyl]-1,3-dihydrobenzimidazol-2-one]"
15,631 nM,"N#Cc1c(Br)cccc1-c1ccc2[nH]c(=O)[nH]c2c1 [Example 63, 2-Bromo-6-(2-oxo-1,3-dihydrobenzimidazol-5-yl)benzonitrile]"
16,100 nM,"Cc1cccc(-c2ccc3[nH]c(=O)[nH]c3c2)c1Cl [Example 64, 5-(2-Chloro-3-methyl-phenyl)-1,3-dihydrobenzimidazol-2-one]"
17,1260 nM,"N#Cc1c(-c2ccc3[nH]c(=O)[nH]c3c2)cccc1C(F)(F)F [Example 65, 2-(2-Oxo-1,3-dihydrobenzimidazol-5-yl)-6-(trifluoromethyl)benzonitrile]"
18,251 nM,"Cc1c(C#N)cccc1-c1ccc2[nH]c(=O)[nH]c2c1 [Example 67, 2-Methyl-3-(2-oxo-1,3-dihydrobenzimidazol-5-yl)benzonitrile]"
19,50.1 nM,"Cc1nc(-c2cccc(-c3ccc4[nH]c(=O)[nH]c4c3)c2C)no1 [Example 71, 5-[2-Methyl-3-(5-methyl-1,2,4-oxadiazol-3-yl)phenyl]-1,3-dihydrobenzimidazol-2-one]"
20,794 nM,"Cc1nc(-c2cccc(-c3ccc4[nH]c(=O)sc4c3)c2C)no1 [Example 72, 6-[2-Methyl-3-(5-methyl-1,2,4-oxadiazol-3-yl)phenyl]-3H-1,3-benzothiazol-2-one]"
21,31.6 nM,"Cc1c(-c2ccc3[nH]c(=O)[nH]c3c2)cccc1-c1noc(C2CC2)n1 [Example 73, 5-[3-(5-Cyclopropyl-1,2,4-oxadiazol-3-yl)-2-methyl-phenyl]-1,3-dihydrobenzimidazol-2-one]"
22,3980 nM,"Cc1c(-c2ccc3[nH]c(=O)sc3c2)cccc1-c1noc(C2CC2)n1 [Example 74, 6-[3-(5-Cyclopropyl-1,2,4-oxadiazol-3-yl)-2-methyl-phenyl]-3H-1,3-benzothiazol-2-one]"
23,20 nM,"Cc1c(-c2ccc3[nH]c(=O)[nH]c3c2)cccc1-c1noc(-c2ccncc2)n1 [Example 75, 5-[2-Methyl-3-[5-(4-pyridyl)-1,2,4-oxadiazol-3-yl]phenyl]-1,3-dihydrobenzimidazol-2-one]"
24,12.6 nM,"COc1cccc(OC(C)C)c1-c1ccc2[nH]c(=O)sc2c1 [Example 77, 6-(2-Isopropoxy-6-methoxy-phenyl)-3H-1,3-benzothiazol-2-one]"
25,200 nM,"CNC(=O)Cc1c(-c2ccc3[nH]c(=O)[nH]c3c2)cccc1C(F)(F)F [Example 78, N-Methyl-2-[2-(2-oxo-1,3-dihydrobenzimidazol-5-yl)-6-(trifluoromethyl)phenyl] acetamide]"
26,794 nM,"Cc1c(C(=O)Nc2ccccc2)cccc1-c1ccc2[nH]c(=O)[nH]c2c1 [Example 79, 2-Methyl-3-(2-oxo-1,3-dihydrobenzimidazol-5-yl)-N-phenyl-benzamide]"

# The next lines start with the molecule.
row,Compound,IC50
1,"O=c1[nH]c2ccc(-c3cccc(Cl)c3C(F)(F)F)cc2[nH]1 [Example 34, 5-[3-Chloro-2-(trifluoromethyl)phenyl]-1,3-dihydrobenzimidazol-2-one]",251 nM
2,"O=c1[nH]c2ccc(-c3ccccc3Br)cc2[nH]1 [Example 35, 5-(2-Bromophenyl)-1,3-dihydrobenzimidazol-2-one]",251 nM
3,"Cc1ccc(C#N)cc1-c1ccc2[nH]c(=O)[nH]c2c1 [Example 39, 4-Methyl-3-(2-oxo-1,3-dihydrobenzimidazol-5-yl)benzonitrile]",1580 nM
4,"N#Cc1ccc(Cl)c(-c2ccc3[nH]c(=O)[nH]c3c2)c1 [Example 40, 4-Chloro-3-(2-oxo-1,3-dihydrobenzimidazol-5-yl)benzonitrile]",1580 nM
5,"COC(=O)c1ccc(Cl)c(-c2ccc3[nH]c(=O)[nH]c3c2)c1 [Example 44, Methyl 4-chloro-3-(2-oxo-1,3-dihydrobenzimidazol-5-yl)benzoate]",316 nM
6,"COC(=O)c1ccc(C)c(-c2ccc3[nH]c(=O)[nH]c3c2)c1 [Example 47, Methyl 4-methyl-3-(2-oxo-1,3-dihydrobenzimidazol-5-yl)benzoate]",501 nM
7,"COC(=O)c1cccc(-c2ccc3[nH]c(=O)[nH]c3c2)c1OC [Example 48, Methyl 2-methoxy-3-(2-oxo-1,3-dihydrobenzimidazol-5-yl)benzoate]",6310 nM
8,"O=c1[nH]c2ccc(-c3c(Cl)cccc3Cl)cc2[nH]1 [Example 49, 5-(2,6-Dichlorophenyl)-1,3-dihydrobenzimidazol-2-one]",63.1 nM
9,"O=c1[nH]c2ccc(-c3c(F)cccc3F)cc2[nH]1 [Example 52, 5-(2,6-Difluorophenyl)-1,3-dihydrobenzimidazol-2-one]",1000 nM
10,"O=c1[nH]c2ccc(-c3c(F)cccc3Cl)cc2[nH]1 [Example 53, 5-(2-Chloro-6-fluoro-phenyl)-1,3-dihydrobenzimidazol-2-one]",251 nM
11,COc1cccc(C)c1-c1ccc2[nH]c(=O)[nH]c2c1 [Example 55],794 nM
12,"N#Cc1cccc(Cl)c1-c1ccc2[nH]c(=O)[nH]c2c1 [Example 56, 3-Chloro-2-(2-oxo-1,3-dihydrobenzimidazol-5-yl)benzonitrile]",631 nM
13,"Cc1cccc(C(F)(F)F)c1-c1ccc2[nH]c(=O)[nH]c2c1 [Example 57, 5-[2-Methyl-6-(trifluoromethyl)phenyl]-1,3-dihydrobenzimidazol-2-one]",631 nM
14,"CC(C)Oc1cccc(-c2ccc3[nH]c(=O)[nH]c3c2)c1C#N [Example 62, 2-Isopropoxy-6-(2-oxo-1,3-dihydrobenzimidazol-5-yl)benzonitrile]",200 nM
15,"N#Cc1cccc(-c2ccc3[nH]c(=O)[nH]c3c2)c1Cl [Example 68, 2-Chloro-3-(2-oxo-1,3-dihydrobenzimidazol-5-yl)benzonitrile]",316 nM
16,"O=c1[nH]c2ccc(-c3c(Cl)cncc3Cl)cc2[nH]1 [Example 69, 5-(3,5-Dichloro-4-pyridyl)-1,3-dihydrobenzimidazol-2-one]",501 nM
17,"Cc1ccnc(Cl)c1-c1ccc2[nH]c(=O)[nH]c2c1 [Example 70, 5-(2-Chloro-4-methyl-3-pyridyl)-1,3-dihydrobenzimidazol-2-one]",794 nM
18,"Cc1c(C(=O)NC2CC2)cccc1-c1ccc2[nH]c(=O)[nH]c2c1 [Example 80, N-Cyclopropyl-2-methyl-3-(2-oxo-1,3-dihydrobenzimidazol-5-yl)benzamide]",3980 nM
19,"Cc1c(C(=O)N(C)C)cccc1-c1ccc2[nH]c(=O)[nH]c2c1 [Example 81, N,N,2-Trimethyl-3-(2-oxo-1,3-dihydrobenzimidazol-5-yl)benzamide]",3160 nM
